Measurements: patent publication US20200345268A1, “ISOTOPIC BIOMARKERS OF ORGANIC ACIDEMIAS” (The United States of America, as represented by the …, priority 2017, published 2020)

How the values were obtained:
[1] = test system: Mut^−/−; Tg^INS-MCK-Mut mice; conditions: mouse, in vivo; for Mut^+/− Oxidation Rate / Mut^−/− Oxidation Rate: ip
Method: To further assess transgene function, the in vivo oxidative capacity of Mut^−/−; Tg^INS-MCK-Mut mice was measured through detecting metabolism of numerous 1-^13C labeled fatty acids to ^13CO2 via the Kreb's Cycle.
The in vivo effects of hepatic Mut deficiency were also assessed by measuring the oxidation of 1-^13C-methionine (FIG. 1I) and 1-^13C-glycine (FIG. 1J). These labels reflect hepatic mitochondrial function and the activity of the glycine cleavage system, both known to be impaired in MMA patients.
In Vivo Stable Isotope Oxidation Studies: Stable isotope studies were performed in 4 Mut−/−; Tg^INS-MCK-Mut and 4 control littermates. Closed circuit, constant volume respiratory chambers were used to collect and measure enrichment of ^13CO2 in mice, as described previously (Chandler and Venditti, 2009 and 2010, Manoli et al 2013). Mice received IP injections with tracer amounts (10 μl/g of [10 mg/ml] tracer solution) of 99.9% ^13C-isotopomers. Aliquots of air were removed every 5-10 min, while CO2 was continuously monitored. ^13CO2 enrichment was measured by isotope ratio mass spectroscopy (Metabolic Solutions, Nashua, N.H.). […] Cumulative percentage of total isotopomer dose metabolized was subsequently calculated, using the formula: Percentage of dose metabolized=total ^13C excreted [mmol/dose (mmol)×100%].
The following 1-C labeled stable isotopes were used: ^13C Sodium Propionate, ^13C-Methionine, ^13C-Glycine, ^13C-Pyruvate, ^13C-Octanoate, ^13C-α-Ketoisocaproic Acid, ^13C-Leucine, ^13C-Acetate, ^13C-Phenylalanine. Stable isotopomers were purchased from Cambridge Isotope Laboratories. Variables were compared for each substrate and time point using a two-sided unpaired t-test and considered statistically significant at p<0.05.
These studies were conducted using N=5 mice with MMA (Mut^−/−; Tg^INS-MCK-Mut mutants) and N=5 sex matched littermates (controls). Each mouse was injected with the labels depicted in Table 3 and the oxidation rates and kinetics of ^13C/^12C CO2 enrichment were analyzed.

[2] = Test drink solution stability; type: physicochemical; conditions: 1 mg/ml in tap water
[3] = test system: methylmalonic acidemia patients and healthy volunteers; conditions: human, in vivo
Source text: Percent Dose Oxidized at each time point=CO2 production rate×Σ(APE (t)/(mmol C^13 administered)×100, where CO2 production rate was the one measured by the indirect calorimetry on the same day just prior to the isotope study.
The test cohort was comprised of 41 patients with MMA (26 mut0, aged 3-37 years, 6 mut-, aged 9-30 years, and 9 cblA, aged 4-41 years), 8 healthy volunteers, and 8 heterozygote parents of affected individuals. Within the affected group, 12 individuals had previously received a liver (LT), kidney (KT), combined liver-kidney (LKT), or partial (graft) liver-kidney (pLKT) transplant (2 LT, 3 KT, 6 LKT, 1 pLKT).
A metabolic cart (ParvoMedics TrueOne2400 Sandy, Utah) was used to measure subject O2 consumption (VO2), CO2 production (VCO2), and resting energy expenditure (REE) at supine posture for 25-35 minutes. Seven of the healthy volunteers were tested three times over a two-month period to evaluate inter- and intra-individual variability.
A dose of 0.5 mg/kg (or 0.5 ml/kg) body weight (BW) was administered to the study subjects orally or through a G-tube as a bolus over no more than 2 minutes, followed by similar amount of water consumption. […] Measurements of the isotopic ratio (^13C/^12C) in expired gas were determined by isotope ratio mass spectrometry (Metabolic Solutions, Nashua, N.H.).

Row | Compound | Cumulative % of total dose metabolized, Controls, mean (SD) [1] | Cumulative % of total dose metabolized, Mutants, mean (SD) [1] | Mut^+/− Oxidation Rate [1] | Mut^−/− Oxidation Rate [1] | also measured
1 | C[13C](=O)[O-].[Na+] [1-^13C-acetate, Sodium 1-^13C-Acetate] | 38.02 (11.79) % | 42.23 (14.32) % | 69.5 +/− 17.7 (n = 5) μmol/g/hour | 88.2 +/− 26.5 (n = 5) μmol/g/hour | 
2 | NC[13C](=O)O [1-^13C-glycine] |  |  | 0.14 +/− 0.003 (n = 3) μmol/g/hour | 0.07 +/− 0.007 (n = 4) μmol/g/hour | oxidation of label (release of label) [1]: impaired ability to release label
3 | CSCC[C@H](N)[13C](=O)O [1-^13C-methionine] |  |  | 11.5 +/− 3.4 (n = 4) μmol/g/hour | 6.5 +/− 2.5 (n = 4) μmol/g/hour | oxidation of label (release of label) [1]: impaired ability to release label
4 | CCC(=O)O [1-^13C-propionate, sodium 1-^13C-propionate] |  |  |  |  | maximal time for maintaining solution stability [2]: two; time within which the majority of the label is oxidized [3]: 15 to 30 min
5 | N[C@@H](C[13c]1ccccc1)C(=O)O [L-1-^13C-Phenylalanine] | 10.75 (7.38) % | 5.71 (2.74) % |  |  | 
6 | C[13C](=O)C(=O)O [Sodium 1-^13C-Pyruvate] | 52.16 (17.06) % | 52.99 (9.85) % |  |  | 
7 | CC(C)CC(=O)[13C](=O)[O-].[Na+] [Sodium 1-^13C-α-Ketoisocaproic Acid] | 33.95 (3.66) % | 24.00 (12.95) % |  |  | 

The next lines start with results.

Row | Cumulative % of total dose metabolized, Controls, mean (SD) [1] | Cumulative % of total dose metabolized, Mutants, mean (SD) [1] | Mut^+/− Oxidation Rate [1] | Mut^−/− Oxidation Rate [1] | Compound | also measured
8 | 4.41 (2.63) % | 5.15 (2.19) % |  |  | CC(C)[13C@H](N)C(=O)O [2-^13C-Valine] | 
9 | 13.54 (1.50) % | 12.44 (3.10) % |  |  | CC(C)C[C@H](N)[13C](=O)O [L-1-^13C-Leucine] | 
10 | 3.68 (2.34) % | 3.32 (0.85) % |  |  | CC(C)C[13C@H](N)C(=O)O [L-2-^13C-Leucine] | 
